Test results published in ChEMBL document CHEMBL3593240, “Structure-based development of nitroxoline derivatives as potential multifunctional anti-Alzheimer agents” (Bioorg Med Chem, 2015).
Active and inactive are the calls of the source. The calls are words filed in the database; no cut-off is given here.

Columns and labels:
[1] = Metal chelating activity of the compound assessed as Fe2+ complex formation at 30 uM after 10 mins by UV-vis spectrometry; type: physicochemical
[2] = Antioxidant activity assessed as DPPH radical scavenging activity; type: physicochemical
[3] = Metal chelating activity of the compound assessed as Co2+ complex formation at 30 uM after 10 mins by UV-vis spectrometry; type: physicochemical
[4] = target: T1, Cholinesterase (Homo sapiens, UniProt P06276)
Description: Inhibition of human recombinant BChE using butyrylthiocholine iodide as substrate after 5 mins by Ellman's method

[5] = target: T2, Acetylcholinesterase (Mus musculus) (UniProt P21836); test: Inhibition of […] iodide as substrate assessed as residual activity at 30 uM after 5 mins by Ellman's method relative to control
T2 sequence (whole entry): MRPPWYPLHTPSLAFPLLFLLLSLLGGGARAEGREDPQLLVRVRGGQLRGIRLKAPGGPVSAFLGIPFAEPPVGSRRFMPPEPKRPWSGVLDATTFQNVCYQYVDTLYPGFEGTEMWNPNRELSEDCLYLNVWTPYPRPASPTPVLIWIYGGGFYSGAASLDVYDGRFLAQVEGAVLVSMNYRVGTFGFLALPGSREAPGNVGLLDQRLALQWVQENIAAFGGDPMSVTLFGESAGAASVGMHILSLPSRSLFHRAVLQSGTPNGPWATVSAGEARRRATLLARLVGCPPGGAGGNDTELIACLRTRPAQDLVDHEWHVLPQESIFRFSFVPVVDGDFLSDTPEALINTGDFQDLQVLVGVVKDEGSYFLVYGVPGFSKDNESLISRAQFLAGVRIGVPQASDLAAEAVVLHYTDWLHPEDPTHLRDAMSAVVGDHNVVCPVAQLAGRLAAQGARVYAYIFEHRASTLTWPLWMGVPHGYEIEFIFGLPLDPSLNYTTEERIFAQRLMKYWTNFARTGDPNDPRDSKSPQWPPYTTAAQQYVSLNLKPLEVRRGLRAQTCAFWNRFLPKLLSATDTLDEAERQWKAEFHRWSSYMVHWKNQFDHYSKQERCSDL

[6] = target: T1, Cholinesterase; test: Inhibition of human recombinant BChE using butyrylthiocholine iodide as substrate assessed as residual activity at 30 uM after 5 mins by Ellman's method relative to control
[7] = Metal chelating activity of the compound assessed as Cu2+ complex formation at 30 uM after 10 mins by UV-vis spectrometry; type: physicochemical
[8] = Metal chelating activity of the compound assessed as Zn2+ complex formation at 30 uM after 10 mins by UV-vis spectrometry; type: physicochemical
[9] = Solubility of the compound at 30 uM; type: physicochemical
[10] = target: Amyloid-beta precursor protein (Homo sapiens) (UniProt P05067); test: Inhibition of human recombinant amyloid beta (1 to 42) self aggregation at 10 uM after 12 hrs by dot-blot assay
[11] = Metal chelating activity of the compound assessed as Mg2+ complex formation at 30 uM after 10 mins by UV-vis spectrometry; type: physicochemical
[12] = Metal chelating activity of the compound assessed as Ca2+ complex formation at 30 uM after 10 mins by UV-vis spectrometry; type: physicochemical
[13] = Binding affinity to Cu2+ using CuCl2 at 30 uM by isothermal titration calorimetry analysis
[14] = Binding affinity to Cu2+ using CuCl2 at 30 uM after 45 mins

Chain of Amyloid-beta precursor protein (Homo sapiens) (P05067 whole entry): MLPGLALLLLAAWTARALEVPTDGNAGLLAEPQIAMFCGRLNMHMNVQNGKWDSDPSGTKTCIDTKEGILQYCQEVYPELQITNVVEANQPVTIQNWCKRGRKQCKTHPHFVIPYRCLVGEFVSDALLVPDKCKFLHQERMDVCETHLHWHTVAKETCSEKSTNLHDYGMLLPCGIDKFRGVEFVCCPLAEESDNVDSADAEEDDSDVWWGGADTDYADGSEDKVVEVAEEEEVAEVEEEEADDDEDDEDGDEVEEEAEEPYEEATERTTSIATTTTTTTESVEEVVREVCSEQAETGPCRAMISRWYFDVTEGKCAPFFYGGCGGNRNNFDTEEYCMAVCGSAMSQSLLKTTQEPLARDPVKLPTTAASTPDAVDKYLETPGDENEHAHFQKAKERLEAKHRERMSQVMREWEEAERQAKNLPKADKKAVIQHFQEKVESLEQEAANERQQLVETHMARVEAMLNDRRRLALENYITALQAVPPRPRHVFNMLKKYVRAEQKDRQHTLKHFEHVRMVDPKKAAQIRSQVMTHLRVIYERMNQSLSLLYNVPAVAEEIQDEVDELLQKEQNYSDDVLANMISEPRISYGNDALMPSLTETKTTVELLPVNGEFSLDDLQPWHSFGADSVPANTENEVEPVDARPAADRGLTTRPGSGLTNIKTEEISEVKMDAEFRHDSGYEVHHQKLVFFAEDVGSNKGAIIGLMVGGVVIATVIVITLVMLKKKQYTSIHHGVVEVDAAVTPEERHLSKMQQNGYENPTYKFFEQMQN
T1 sequence (P06276 whole entry): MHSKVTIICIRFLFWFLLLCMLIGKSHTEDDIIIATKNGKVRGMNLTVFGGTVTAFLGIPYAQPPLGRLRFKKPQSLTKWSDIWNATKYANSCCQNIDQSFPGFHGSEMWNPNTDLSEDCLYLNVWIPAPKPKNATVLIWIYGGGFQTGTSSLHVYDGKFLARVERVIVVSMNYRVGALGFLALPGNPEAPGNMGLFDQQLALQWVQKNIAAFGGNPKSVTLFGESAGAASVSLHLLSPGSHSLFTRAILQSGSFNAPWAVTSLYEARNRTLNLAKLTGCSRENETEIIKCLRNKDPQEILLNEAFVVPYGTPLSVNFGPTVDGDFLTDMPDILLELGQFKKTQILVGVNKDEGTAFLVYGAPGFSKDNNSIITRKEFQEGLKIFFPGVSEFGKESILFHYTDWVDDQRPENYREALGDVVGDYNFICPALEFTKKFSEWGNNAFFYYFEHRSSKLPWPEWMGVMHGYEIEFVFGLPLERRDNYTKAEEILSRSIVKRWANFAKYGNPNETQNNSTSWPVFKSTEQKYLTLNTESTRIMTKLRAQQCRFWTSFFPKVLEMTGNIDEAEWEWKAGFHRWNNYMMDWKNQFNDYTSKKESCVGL

Structure (SMILES)	Activity [1]	EC50 [2] [µM]	Activity [3]	IC50 [4] [µM]	inhibition [5]	Ratio [6]	Activity [7]	Activity [8]	solubility [9]	inhibition [10] [%]	Activity [11]	Activity [12]	Ratio [5]	Kd [13] [µM]	Activity [14]	inhibition [6]
COCCN(CC1CCN(Cc2nc3ccccc3s2)CC1)C(=O)c1cc([N+](=O)[O-])c2cccnc2c1O	Active	4140	Active	2.14	inactive	0.129	Active	Active	soluble	44.2	–	–	–	–	–	–
COCCN(CC1CCCN(C2Cc3ccccc3C2)C1)C(=O)c1ccc2ccccc2c1 (stereo not drawn)	–	–	–	–	inactive	–	–	–	–	–	–	–	–	–	–	–
COCCN(CC1CCN(Cc2nc3ccccc3o2)CC1)C(=O)c1cc([N+](=O)[O-])c2cccnc2c1O	Active	770	Active	–	inactive	0.805	Active	Active	soluble	34.9	Not Active	Not Active	–	–	–	–
O=c1c(O)c(-c2ccc(O)c(O)c2)oc2cc(O)cc(O)c12 [QUERCETIN]	–	10.9	–	–	–	–	–	–	–	–	–	–	–	–	–	–
O=C(NCC1CCCN(c2nc3ccccc3o2)C1)c1cc([N+](=O)[O-])c2cccnc2c1O (stereo not drawn)	Active	881	Active	–	inactive	0.914	Active	Active	soluble	35.5	–	–	–	–	–	–
O=C(NCC1CCCN(C2Cc3ccccc3C2)C1)c1cc([N+](=O)[O-])c2cccnc2c1O (stereo not drawn)	Active	524	Active	–	–	0.747	Active	Active	soluble	28.7	–	–	0.641	–	–	–
COCCN(CC1CCCN(C2Cc3ccccc3C2)C1)C(=O)c1cc([N+](=O)[O-])c2cccnc2c1O (stereo not drawn)	Active	3450	Active	0.215	inactive	0.014	Active	Active	soluble	20.1	Not Active	Not Active	–	0.25	Active	–
O=C(NCC1CCCN(c2nc3ccccc3s2)C1)c1cc([N+](=O)[O-])c2cccnc2c1O (stereo not drawn)	Active	3830	Active	–	inactive	–	Active	Active	soluble	33.3	–	–	–	–	–	inactive
O=C(NCC1CCCN(Cc2nc3ccccc3s2)C1)c1cc([N+](=O)[O-])c2cccnc2c1O (stereo not drawn)	Active	1330	Active	–	inactive	0.444	Active	Active	soluble	53.4	–	–	–	–	–	–
